Test results: US20260263550A1, “METHODS AND COMPOSITIONS FOR TREATING, PREVENTING, INHIBITING, AMELIORATING OR DELAYING THE ONSET OF OPHTHALMIC CONDITIONS” (Stealth BioTherapeutics Inc., priority 2021, published 2026)
Where “and” joins values, the source holds several entries; their conditions need not be identical. Equal entries are not always repeated.

Experiments:
[1] = tested on: iPSC-derived RPE cells from AMD donors; assay: Measurement of mitochondrial function (Seahorse XF Cell Mito Stress Test); assay type: cell-based, human; conditions: 10, 100, 1000 nM, treatment began 24 hours prior to assay, FIGS. 8AA-8AL
Procedure: Measurement of mitochondrial function. Analysis of mitochondrial function was performed on live iPSC-derived RPE cells from AMD donors (n=3; 2 atrophic with GA, 1 exudative) treated with drug (elamipretide, compound of Formula IIa, or vehicle) as described below and iPSC-derived RPE cells from non-diseased controls (n=2) using the XFe96 Extracellular Flux Analyzer (Agilent Technologies, Santa Clara, California, www.agilent.com) and the Seahorse XF Cell Mito Stress Test (CMST) Kit (Agilent Technologies). iPSC-derived RPE cells were seeded onto a laminin-coated Seahorse XF plates and grown until confluent. Data were normalized by cell count. Drug treatments began 24 hours prior to assay. […]
Cells were stained with DAPI and counted by ImageJ software (National Institute of Health, Bethesda, Maryland, www.nih.gov). […] Oxygen consumption rate was detected under basal conditions followed by the sequential addition of oligomycin, carbonyl cyanide 4-(trifluoromethoxy) phenylhydrazone (FCCP), rotenone, and antimycin A. From these sequential additions, the following parameters can be derived: basal respiration, ATP production, maximal respiration, and spare respiratory capacity.

[2] = 10-day SC study in-life assessments (mortality, body weight, tolerability); assay type: in vivo, cynomolgus monkey
Procedure: (§1) Administration of Compound of Formula IIa. The test agent (compound of formula IIa) was administered daily via subcutaneous injection into the scapular and mid-dorsal areas for 10 days. The first day of dosing was designated as Day 1. Dose formulations were allowed to warm up at ambient temperature for at least 30 minutes prior to dosing, as appropriate. The animals were temporarily restrained for dose administration and were not sedated. The volume for each dose was administered over 1 (preferred) or 2 (as necessary) separated injections within the designated area. If a designated injection site was not available for a given animal on any day, the next available test site in the rotation was used. The injection area was marked as frequently as required to allow appropriate visualization of administration sites. On the last injection occasion for each quadrant, the last site of injection was circled, and the circled site was collected for necropsy.
In-life procedures, observations, and measurements.

[3] = Uptake in plasma and compartments of the eye in a rabbit model (subcutaneous or topical ocular dosing); assay type: in vivo, Dutch Belted Rabbits; conditions: in vivo
Procedure: 3 mg/mL elamipretide or compound of Formula IIa in saline was dosed subcutaneously at 1.5 mg/kg. A 3 mg/mL elamipretide or compound of Formula IIa formulation was prepared by dissolving 81 mg elamipretide in a total volume of 27 mL of sterile saline and mixing well. • (ii) Groups 2 & 4: Topical Ocular Formulation for administration of elamipretide or compound of Formula IIa
For each preparation (i.e., elamipretide or compound of Formula IIa, sodium chloride (105 mg) was dissolved in 16 mL of water for injection with mixing. With mixing, 82.8 mg of sodium phosphate monobasic, monohydrate was then added. With mixing, 0.400 mL of a 5 mg/mL benzalkonium chloride solution in water (to be prepared by diluting 0.100 mL of a 50% benzalkonium chloride solution in water to 10 mL with water for injection) was then added. Two hundred (200) mg of elamipretide or compound of Formula IIa was then added with mixing and the formulation pH was adjusted to 5.8 (+/−0.1) with 1 M sodium hydroxide in water solution. The final volume of the formulation was then be brought to 20 mL using water for injection. Each formulation (elamipretide or compound of Formula IIa) was used for topical ocular administration at a dose of 50 μL/eye OU.
A total of 48 male Dutch Belted Rabbits were used in the study. Each animal was approximately 2 kg.
For subcutaneous administration, rabbits were dosed via a single subcutaneous injection of 1.5 mg/kg and at the scruff of the neck between the shoulder blades using a syringe with an attached 27G×½ inch needle (or similar). The site of injection was checked to ensure no leakage of dose immediately following administration.
For topical administration, a calibrated Gilson positive displacement pipette was used to administer 50 μL of formulation onto the globe the eye while the lower eyelid was pulled away from the globe. Administration was twice daily (i.e., BID). Doses were administered to both eyes, every 8 to 12 hours for 11 total doses.
Terminal blood samples (approximately 6 mL) were collected from two animals/group/timepoint via the central ear artery at approximately 0.5, 1, 2, 4, 8, and 24 hours postdose. Blood samples were collected into tubes containing K2EDTA as the anticoagulant and inverted several times to ensure adequate mixing of blood and anticoagulant and placed on ice. Within 30 min of collection, samples were centrifuged to harvest plasma and stored at −80° C. until analyzed.
Following blood collection, designated animals were euthanized by barbiturate overdose. Following euthanasia, both eyes of each rabbit were harvested and dissected for collection of ocular tissue and fluid. Optic nerve and retina were collected from Group 1 and 3 animals, and aqueous humor, retina, conjunctiva, cornea, sclera, and optic nerve were collected from Group 2 and 4 animals. Following dissection, all fluids and tissues were placed in pre-tared tubes, weight collected, and then flash frozen on dry ice and placed in a freezer at −80° C. or lower until analyzed. Concentrations of test article in plasma in the ocular tissues (ng/g tissue) and fluids (ng/mL fluid) were determined utilizing a method previously developed by the CRO.

[4] = Uptake in the retina after 10-day SC dosing, LC-MS/MS; assay type: in vivo, cynomolgus monkey; conditions: male cynomolgus monkeys 1001-1003, SC 5 mg/kg/day for 10 days, left eye, approximately 24 hours after the last dose
Procedure: as §1
Tissue collection, preservation, and analysis. Eye tissue (retina) was collected approximately 24 hours after the last dose on Day 10. […]
Tissue samples were prepared and analyzed by methods similar to those described above in Example 3. In brief, concentrations of test article (compound of Formula IIa) in the retina (ng/g tissue) was determined by LC-MS/MS using Formula IIb as a standard.

[5] = SC 5 mg/kg/day for 10 days, 3 males

**Q.** With `Cc1cc(O)cc(C)c1C[C@H](NC(=O)[C@H](N)CCCNC(=N)N)C(=O)N[C@@H](CCCCN)c1nc(Cc2ccccc2)no1.Cl.Cl.Cl` [Formula IIa, (R)-2-amino-N—((S)-1-(((S)-5-amino-1-(3-benzyl-1,2,4-oxadiazol-5-yl)pentyl)amino)-3-(4-hydroxy-2,6-dimethylphenyl)-1-oxopropan-2-yl)-5-guanidinopentanamide] as the compound, how does the “mitochondrial function (ATP production; basal respiration; maximal respiration; spare respiratory capacity)” value [1] read?
**A.** efficacy in improving mitochondrial function

**Q.** And the “tolerability of administration by subcutaneous injection” value ([2]; 5 mg/kg/day for 10 days)?
**A.** well-tolerated

**Q.** What about the “body weights, differences related to administration” value [2, 5] of the same compound?
**A.** no differences in body weights

**Q.** And the “mortality during the study” value [2, 5]?
**A.** no mortality

**Q.** And the “accumulation in eye tissues (retina, conjunctiva, cornea, aqueous humor, optic nerve head) compared with elamipretide” value [3]?
**A.** higher concentration

**Q.** What about the “concentration in the eye tissue examined compared with elamipretide (conjunctiva, cornea, aqueous humor, optical nerve head)” value [3] of the same compound?
**A.** higher

**Q.** What about the “concentration in plasma, elamipretide compared with compound of Formula IIa” value ([3]; 1.5 mg/kg) of the same compound?
**A.** roughly equivalent

**Q.** What about the “Concentration in Retina at Day 11 (individual subjects)” value [4] of the same compound?
**A.** 382 ng/g and 336 ng/g and 126 ng/g
